Experimental data: ChEMBL document CHEMBL1201862, “PubChem BioAssay data set” (2004)
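Briefly, cells in 96-well plates were exposed to five compound concentrations for 48 h, and endpoints were estimated by linear interpolation. GI50: concentration for 50% inhibition of growth.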 The source made the active and inactive calls. No stated cut-off is given here; in the data, active = GI50 up to about 1.1 µM and inactive = higher.

Columns and labels:
Assay in all cases: inhibition of tumour cell growth, NCI panel, 48 h
HOP-62 = system: HOP-62
SW-620 = system: SW-620
MDA-MB-435 = system: MDA-MB-435
SNB-75 = system: SNB-75
CCRF-CEM = system: CCRF-CEM
SN12C = system: SN12C
K562 = system: K562
NCI/ADR-RES = system: NCI/ADR-RES
LOX IMVI = system: LOX IMVI
A498 = system: A498
T47D = system: T47D
A549 = system: A549
SK-OV-3 = system: SK-OV-3
SF-539 = system: SF-539
NCI-H522 = system: NCI-H522
OVCAR-3 = system: OVCAR-3
HL-60 = system: HL-60
ACHN = system: ACHN
U-251 = system: U-251

| SMILES | GI50 (HOP-62) | GI50 (SW-620) | GI50 (MDA-MB-435) | GI50 (SNB-75) | GI50 (CCRF-CEM) | GI50 (SN12C) | GI50 (K562) | GI50 (NCI/ADR-RES) | GI50 (LOX IMVI) | GI50 (A498) | GI50 (T47D) | GI50 (A549) | GI50 (SK-OV-3) | GI50 (SF-539) | GI50 (NCI-H522) | GI50 (OVCAR-3) | GI50 (HL-60) | GI50 (ACHN) | GI50 (U-251) |
| --- | --- | --- | --- | --- | --- | --- | --- | --- | --- | --- | --- | --- | --- | --- | --- | --- | --- | --- | --- |
| COc1ccc(/C=C2\C[C@H]3[C@@H]4CCC5=CC(=O)CC[C@]5(C)[C@H]4CC[C@]3(C)C2=O)cc1OC | 0.332 µM (active) | 21.1 µM (inactive) | 5.48 µM (inactive) | > 100 µM (inactive) | 2.19 µM (inactive) | 14.4 µM (inactive) | 3.8 µM (inactive) | 6.27 µM (inactive) | 11.9 µM (inactive) | 3.25 µM (inactive) | 3.56 µM (inactive) | 5.58 µM (inactive) | 0.0627 µM (active) | 40 µM (inactive) | 2.74 µM (inactive) | 17.5 µM (inactive) | 1.37 µM (inactive) | 9.04 µM (inactive) | – |
| CCN(CC)CCOc1ccc(N2Cc3ccccc3C2=O)cc1 | > 10 µM (inactive) | > 10 µM (inactive) | > 10 µM (inactive) | > 10 µM (inactive) | > 10 µM (inactive) | > 10 µM (inactive) | > 10 µM (inactive) | > 10 µM (inactive) | > 10 µM (inactive) | > 10 µM (inactive) | > 10 µM (inactive) | > 10 µM (inactive) | > 10 µM (inactive) | > 10 µM (inactive) | > 10 µM (inactive) | > 10 µM (inactive) | > 10 µM (inactive) | > 10 µM (inactive) | > 10 µM (inactive) |
| COc1ccc(OC/C(N)=N/NC(=O)c2ccncc2)cc1 | > 100 µM (inactive) | > 100 µM (inactive) | > 100 µM (inactive) | 8.22 µM (inactive) | > 100 µM (inactive) | > 100 µM (inactive) | > 100 µM (inactive) | > 100 µM (inactive) | > 100 µM (inactive) | > 100 µM (inactive) | > 100 µM (inactive) | > 100 µM (inactive) | > 100 µM (inactive) | > 100 µM (inactive) | > 100 µM (inactive) | > 100 µM (inactive) | > 100 µM (inactive) | > 100 µM (inactive) | > 100 µM (inactive) |
| COc1cccc([C@H]2C/C(=N\NC(=O)C(=O)N[C@@H](C)c3ccccc3)c3ccccc3N2)c1 | 4.51 µM (inactive) | 0.0339 µM (active) | < 0.01 µM (active) | 8.53 µM (inactive) | 0.0188 µM (active) | 0.0184 µM (active) | < 0.01 µM (active) | 7.05 µM (inactive) | 0.0721 µM (active) | 0.0417 µM (active) | > 10 µM (inactive) | 6.15 µM (inactive) | 0.0491 µM (active) | 7.82 µM (inactive) | 9.42 µM (inactive) | 0.0181 µM (active) | > 10 µM (inactive) | 0.0381 µM (active) | 7.67 µM (inactive) |
| COc1cc(C(C)(C)C)c(OC(=O)/C=C/C(=O)O/C=C/[N+](=O)[O-])c(C(C)(C)C)c1 | > 100 µM (inactive) | 28.4 µM (inactive) | 21.2 µM (inactive) | > 100 µM (inactive) | 10.2 µM (inactive) | 41.3 µM (inactive) | > 100 µM (inactive) | 23.4 µM (inactive) | 24.2 µM (inactive) | 44.4 µM (inactive) | 41.8 µM (inactive) | 21.4 µM (inactive) | > 100 µM (inactive) | 34.4 µM (inactive) | 29.9 µM (inactive) | 32.7 µM (inactive) | 0.324 µM (active) | 30.5 µM (inactive) | 47.1 µM (inactive) |
| O=C1NC(=S)N(c2cccc3ccccc23)C(=O)/C1=C/c1c[nH]c2ccccc12 | 2.83 µM (inactive) | 2.25 µM (inactive) | 2.34 µM (inactive) | 2.43 µM (inactive) | 1.76 µM (inactive) | 2.02 µM (inactive) | 2.38 µM (inactive) | 3 µM (inactive) | 1.82 µM (inactive) | 2.05 µM (inactive) | 3.89 µM (inactive) | 5.12 µM (inactive) | 4.02 µM (inactive) | 2.23 µM (inactive) | 2.78 µM (inactive) | 3.38 µM (inactive) | 2.21 µM (inactive) | 2.37 µM (inactive) | 2.22 µM (inactive) |
| COc1ccccc1CCN1CCN(CCCc2ccccc2)CC1 | > 100 µM (inactive) | > 100 µM (inactive) | 85.5 µM (inactive) | > 100 µM (inactive) | > 100 µM (inactive) | 83.9 µM (inactive) | 34.5 µM (inactive) | > 100 µM (inactive) | 64.6 µM (inactive) | 70.8 µM (inactive) | 55.3 µM (inactive) | 85.7 µM (inactive) | > 100 µM (inactive) | > 100 µM (inactive) | 32.4 µM (inactive) | > 100 µM (inactive) | 65.9 µM (inactive) | > 100 µM (inactive) | > 100 µM (inactive) |
| O=C(O)COc1cc(-c2ccccc2)nc2ccccc12 | 95.9 µM (inactive) | 59.7 µM (inactive) | 16 µM (inactive) | 41.5 µM (inactive) | 56.2 µM (inactive) | > 100 µM (inactive) | 36.8 µM (inactive) | 52.1 µM (inactive) | 99.8 µM (inactive) | 65.3 µM (inactive) | > 100 µM (inactive) | 66.4 µM (inactive) | 73.3 µM (inactive) | 70.8 µM (inactive) | 77.4 µM (inactive) | > 100 µM (inactive) | 41.2 µM (inactive) | > 100 µM (inactive) | 71.9 µM (inactive) |
| O=c1c2ccccc2nc(N/N=C/c2ccc(Cl)cc2)n1-c1ccccc1 | 38.1 µM (inactive) | > 100 µM (inactive) | > 100 µM (inactive) | 0.0269 µM (active) | > 100 µM (inactive) | > 100 µM (inactive) | > 100 µM (inactive) | > 100 µM (inactive) | > 100 µM (inactive) | > 100 µM (inactive) | 82.6 µM (inactive) | > 100 µM (inactive) | > 100 µM (inactive) | 97.3 µM (inactive) | 67 µM (inactive) | > 100 µM (inactive) | > 100 µM (inactive) | > 100 µM (inactive) | 46.6 µM (inactive) |
| COC(=O)c1ccccc1C1CN=NC12Cc1cc(C)c(C)cc1C2=O (stereo not given) | 78 µM (inactive) | 51.6 µM (inactive) | 33.4 µM (inactive) | 29.9 µM (inactive) | 24.1 µM (inactive) | 48.9 µM (inactive) | 20 µM (inactive) | 23.6 µM (inactive) | 20.4 µM (inactive) | 25.8 µM (inactive) | 31.8 µM (inactive) | 37.8 µM (inactive) | 40.3 µM (inactive) | 84.3 µM (inactive) | 14.3 µM (inactive) | 27.5 µM (inactive) | 21.8 µM (inactive) | 40.2 µM (inactive) | 41.6 µM (inactive) |
| C[N+]1(CCC(=O)c2ccccc2)CCC2CCC(C2)C1 (stereo not given) | > 100 µM (inactive) | > 100 µM (inactive) | > 100 µM (inactive) | > 100 µM (inactive) | > 100 µM (inactive) | > 100 µM (inactive) | > 100 µM (inactive) | > 100 µM (inactive) | > 100 µM (inactive) | > 100 µM (inactive) | > 100 µM (inactive) | > 100 µM (inactive) | > 100 µM (inactive) | > 100 µM (inactive) | > 100 µM (inactive) | > 100 µM (inactive) | > 100 µM (inactive) | > 100 µM (inactive) | > 100 µM (inactive) |
| O[C@H]1[C@H](O)[C@@H](Cn2nnc(-c3ccccc3)c2-c2ccccc2)OCO[C@@H]1Cn1nnc(-c2ccccc2)c1-c1ccccc1 | 13.1 µM (inactive) | 5.22 µM (inactive) | 5.04 µM (inactive) | 7.82 µM (inactive) | 3.53 µM (inactive) | 2.36 µM (inactive) | 4.01 µM (inactive) | 7.24 µM (inactive) | 2.32 µM (inactive) | 6.47 µM (inactive) | 7.98 µM (inactive) | 3.74 µM (inactive) | 3.38 µM (inactive) | 3.16 µM (inactive) | 5.31 µM (inactive) | 2.96 µM (inactive) | 3.88 µM (inactive) | 3.63 µM (inactive) | 3.73 µM (inactive) |
| CCOC(=O)/C=C(/OCC)[C@@H]1C(C(=O)c2ccc(Cl)cc2)[C@@H]1/C(=C\C(=O)OCC)OCC (stereo not given in full) | 14.3 µM (inactive) | 12.6 µM (inactive) | 6.58 µM (inactive) | 7.5 µM (inactive) | 5.69 µM (inactive) | 17.7 µM (inactive) | 2.62 µM (inactive) | 3.6 µM (inactive) | 24.3 µM (inactive) | 8.89 µM (inactive) | 6.01 µM (inactive) | 10.9 µM (inactive) | 27.2 µM (inactive) | 22.1 µM (inactive) | 3.62 µM (inactive) | 7.57 µM (inactive) | 3.12 µM (inactive) | 13.2 µM (inactive) | 4.99 µM (inactive) |
| COc1cc(S(=O)(=O)Nc2nc(-c3ccc(N4C(=O)CSC4c4cccs4)cc3)cs2)ccc1Cl (stereo not given) | > 100 µM (inactive) | 40.8 µM (inactive) | > 100 µM (inactive) | > 100 µM (inactive) | 17.9 µM (inactive) | 25.6 µM (inactive) | 31 µM (inactive) | > 100 µM (inactive) | 21.8 µM (inactive) | > 100 µM (inactive) | 36.8 µM (inactive) | > 100 µM (inactive) | > 100 µM (inactive) | 49.7 µM (inactive) | 30.9 µM (inactive) | 33.7 µM (inactive) | 23.2 µM (inactive) | > 100 µM (inactive) | > 100 µM (inactive) |
